How the values were obtained:
Set-up in all cases: species or system AML cell lines (8); Primary HTS, single concentration about 10 uM, Cell Titer Glo viability; log10 luminescence, per cent inhibition relative to cycloheximide control
Details in all cases: 72 h, relative to cycloheximide control, log10 luminescence; inhibitor
CHRF288-11 = system: CHRF288-11
CMK = system: CMK
CMS = system: CMS
M07e = system: M07e
ML-2 = system: ML-2
MOLM-13 = system: MOLM-13
MV4-11 = system: MV4-11
U937 = system: U937

| Compound | CHRF288-11 %inh (CHRF288-11) | CMK %inh (CMK) | CMS %inh (CMS) | M07e %inh (M07e) | ML-2 %inh (ML-2) | MOLM-13 %inh (MOLM-13) | MV4-11 %inh (MV4-11) | U937 %inh (U937) |
| --- | --- | --- | --- | --- | --- | --- | --- | --- |
| N#Cc1cccc(Nc2ncc(-c3ccccc3)o2)c1 [SJ000573137-1, U15924/27/1] | -9.448% | 10.57% | -1.613% | -5.302% | 1.759% | 64.56% | 38.03% | 0.4025% |
| CC1=C(C(=O)Nc2ccc3[nH]ncc3c2)C(c2ccc3ccccc3c2)CC(=O)N1 (stereo not shown) [SJ000573139-1, KG204183-124A1] | 15.76% | 48.89% | 1.368% | 1.439% | 11.01% | 1.247% | 30.46% | 2.011% |
| NS(=O)(=O)c1ccc(-c2ccc3c(NC(=O)C4CC4)n[nH]c3c2)cc1 [SJ000573140-1, VB100064-161A1] | 4.361% | -4.867% | -3.489% | -0.07238% | 0.5159% | -3.649% | -0.6023% | -0.5779% |
| CNC(=O)Oc1cc(C)c(/C=C/c2cncc(C(=O)NC)c2)c(C)c1 [SJ000573141-1, U11962/26/1] | 7.117% | 8.893% | -0.3622% | 6.045% | 1.2% | 3.548% | 1.51% | 0.6726% |
| Nc1nccc(-c2c(-c3ccc(F)cc3)nn3cc(C(F)(F)F)ccc23)n1 [SJ000573142-1, U14741/95/1] | 1.132% | -0.4076% | -0.8913% | 93.92% | 1.904% | 0.5656% | -1.787% | -1.917% |
| N#Cc1ccc2c(-c3ccnc(NC4CC4)n3)c(-c3ccc(F)cc3)nn2c1 [SJ000573143-1, U15304/34/1] | -0.1104% | 2.803% | 2.587% | 7.135% | 1.142% | 2.3% | -1.164% | 0.4809% |
| Fc1ccc(-c2ncn(CCCN3CCOCC3)c2-c2ccncc2)cc1 [SJ000573144-1, LDD-19018-277B] | 5.233% | 29.46% | -0.05724% | 0.1764% | 2.361% | 2.986% | -0.2277% | -0.4661% |
| O=C(Nc1n[nH]c2nc(-c3ccco3)c(Br)cc12)C1CC1 [SJ000573145-1, AG201339-071A1] | -1.607% | 0.1482% | 6.31% | -5.829% | -0.5766% | 0.2319% | 10.91% | -0.3135% |
| CN(C)CCCn1c(-c2nonc2N)nc2cnccc21 [SJ000573146-1, NB100580-138A1] | -1.122% | 9.262% | -2.565% | -3.074% | -0.381% | -2.29% | -1.385% | 0.1912% |
| O=C(Nc1n[nH]c2cc(-c3ccc(F)cc3)ccc12)C1CC1 [SJ000573147-1, VB100064-137A1] | 23.72% | 55.62% | -1.795% | 6.083% | 9.118% | 13.56% | -2.4% | 28.55% |
| O=C1NC(=O)C(c2ccc(Cl)cc2)=C1Nc1ccc(Cl)c(C(=O)O)c1 [SJ000573148-1, DH98298-170B2] | -1.873% | -5.939% | -1.744% | -2.934% | 0.6305% | -3.138% | -6.646% | -3.231% |

From paper PMC6522510 (Nature Communications, 2019)
